Test results: the supplement of paper PMC10307832

Columns and labels:
Assay in all cases: relative viability (nuclei count vs DMSO), 5 days (fraction); higher = more cells survive
[1] = compound: CN(c1ncccc1CNc1nc(Nc2ccc3c(c2)CC(=O)N3)ncc1C(F)(F)F)S(C)(=O)=O + CS(=O)(=O)CCNCc1ccc(-c2ccc3ncnc(Nc4ccc(OCc5cccc(F)c5)c(Cl)c4)c3c2)o1 [Lapatinib] (partner 2 µM)
Summary of the method: (§1)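 Lung cancer cell lines in 1536-well plates got either a single drug or a fixed anchor-drug dose together with five library-drug doses (not always all listed) in √10 steps, by pin tool, on the day after seeding. Nuclei were counted after 5 days, and relative viability is the treated-to-vehicle ratio of nuclei counts. Values are medians of duplicate plates.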

[2] = compound: CN(c1ncccc1CNc1nc(Nc2ccc3c(c2)CC(=O)N3)ncc1C(F)(F)F)S(C)(=O)=O + CC(C)C[C@H](NC(=O)[C@H](Cc1ccccc1)NC(=O)c1cnccn1)B(O)O [Bortezomib] (partner 0.002 µM)
Summary of the method: as §1

[3] = compound: CN(c1ncccc1CNc1nc(Nc2ccc3c(c2)CC(=O)N3)ncc1C(F)(F)F)S(C)(=O)=O + Nc1ncn([C@H]2C[C@H](O)[C@@H](CO)O2)c(=O)n1 [Decitabine] (partner 2 µM)
Summary of the method: as §1

[4] = compound: CN(c1ncccc1CNc1nc(Nc2ccc3c(c2)CC(=O)N3)ncc1C(F)(F)F)S(C)(=O)=O + NC(=O)Nc1cc(-c2cccc(F)c2)sc1C(=O)N[C@H]1CCCNC1 [AZD7762] (partner 0.2 µM)
Summary of the method: as §1

Cell Line | relative viability ([1]; first compound 0.01 µM) | relative viability ([1]; first compound 0.03162 µM) | relative viability ([1]; first compound 0.1 µM) | relative viability ([1]; first compound 0.3162 µM) | relative viability ([1]; first compound 1 µM) | relative viability ([2]; first compound 0.01 µM) | relative viability ([2]; first compound 0.03162 µM) | relative viability ([2]; first compound 0.1 µM) | relative viability ([2]; first compound 0.3162 µM) | relative viability ([2]; first compound 1 µM) | relative viability ([3]; first compound 0.01 µM) | relative viability ([3]; first compound 0.03162 µM) | relative viability ([3]; first compound 0.1 µM) | relative viability ([3]; first compound 0.3162 µM) | relative viability ([3]; first compound 1 µM) | relative viability ([4]; first compound 0.01 µM) | relative viability ([4]; first compound 0.03162 µM) | relative viability ([4]; first compound 0.1 µM) | relative viability ([4]; first compound 0.3162 µM) | relative viability ([4]; first compound 1 µM)
NCI-H2405 | 1.16 | 1.08 | 0.995 | 1.02 | 0.91 | 1.05 | 0.972 | 1.03 | 0.865 | 0.813 | 0.766 | 0.735 | 0.67 | 0.681 | 0.648 | 0.702 | 0.69 | 0.749 | 0.573 | 0.626
NCI-H3122 | 1.02 | 1.08 | 1.01 | 0.956 | 0.876 | 1.04 | 1.03 | 1.01 | 0.968 | 0.891 | 0.445 | 0.423 | 0.395 | 0.429 | 0.403 | 1.04 | 1.09 | 0.981 | 0.978 | 1.03
PC-3 [JPC-3] | 0.441 | 0.395 | 0.446 | 0.471 | 0.432 | 0.853 | 0.801 | 0.827 | 0.855 | 0.829 | 0.826 |  | 0.821 | 0.884 | 0.834 | 0.851 |  | 0.848 | 0.948 | 1.03
PC-14 | 0.366 | 0.373 | 0.292 | 0.323 | 0.33 | 1.02 | 0.935 | 0.984 | 0.799 | 0.821 | 0.197 | 0.225 | 0.254 | 0.245 | 0.269 | 0.393 | 0.443 | 0.426 | 0.385 | 0.311
RERF-LC-KJ | 0.926 | 0.988 | 0.854 | 0.886 | 0.91 | 1.08 | 1.23 | 1.11 | 1.13 | 0.999 | 0.651 | 0.71 | 0.645 | 0.793 | 0.764 | 0.89 | 1.08 | 1.03 | 1.04 | 1.07
